Reference: patent US7812014B2, “Bicyclic 6-alkylidene-penems as β-lactamase inhibitors” (priority 2002, dated 2010)
Counter-ions that a name gives are not always drawn. Like-named read-outs stand apart in the source and are kept apart here.

Assays:
[1] = molecular target: class A β-lactamase TEM-1 (Escherichia coli, UniProt P62593); experiment: IC50 determination, β-lactamase inhibition (nitrocefin, spectrophotometric); type: biochemical, E. coli; details: enzyme 4.3 nM; 10 minutes preincubation at 25° C.; nitrocefin 50 μg/ml; pH 7.0
Chain of class A β-lactamase TEM-1 (P62593 24-286 limits assumed): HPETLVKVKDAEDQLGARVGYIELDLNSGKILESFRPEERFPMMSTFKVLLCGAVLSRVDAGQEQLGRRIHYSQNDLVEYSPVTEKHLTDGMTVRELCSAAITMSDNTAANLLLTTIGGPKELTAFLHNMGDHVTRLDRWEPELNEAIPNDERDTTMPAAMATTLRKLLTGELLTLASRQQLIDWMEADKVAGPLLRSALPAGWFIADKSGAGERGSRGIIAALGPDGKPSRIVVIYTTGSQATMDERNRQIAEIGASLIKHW
Method: (§1) IC50 Determination for the Penem Inhibitor
(§2) β-Lactamase inhibitory activity of the penem inhibitors was determined spectrophotometrically as described by Bush et al., [Bush, K., Macalintal, C., Rasmussen, B. A., Lee, V. and Yang, Y. Antimicrobial Agents and Chemotherapy 1993, 37, 851]. Homogeneously purified class A β-lactamases TEM-1 from E. coli and Imi-1 from Enterobacter cloacae, class B enzyme CcrA from Bacteroides fragilis and class C enzyme AmpC from Enterobacter cloaca were employed in the assay. The enzyme concentrations for TEM-1, Imi-1, CcrA and AmpC were 4.3, 7.1, 1.2 and 2.1 nM, respectively. A wide range of inhibitor concentrations were prepared in 50 mM PO4, pH 7.0 to include the possible IC50 values. The substrate used to initiate the enzyme reaction was nitrocefin at 50 μg/ml in the same buffer as the inhibitor. Initially the enzyme and inhibitor (20 μl each) were preincubated for 10 minutes at 25° C. prior to the addition of 160 μl volume of nitrocefin. Initial rates of hydrolysis were monitored for 5 minutes at 495 nm using a Molecular Devices Spectra Max 250 with kinetic protocol of SoftMax Program. Readings from the Spectra Max 250 were exported and transferred to Microsoft Excel. The percent of inhibition of each inhibitor concentration was calculated based on the control enzyme activity. The inhibitor concentration that caused a 50% reduction in the enzymatic activity (IC50) was determined graphically.

[2] = molecular target: class A β-lactamase Imi-1 (Enterobacter cloacae, UniProt Q46991); experiment: as above; type: biochemical
Chain of class A β-lactamase Imi-1 (Q46991 28-292): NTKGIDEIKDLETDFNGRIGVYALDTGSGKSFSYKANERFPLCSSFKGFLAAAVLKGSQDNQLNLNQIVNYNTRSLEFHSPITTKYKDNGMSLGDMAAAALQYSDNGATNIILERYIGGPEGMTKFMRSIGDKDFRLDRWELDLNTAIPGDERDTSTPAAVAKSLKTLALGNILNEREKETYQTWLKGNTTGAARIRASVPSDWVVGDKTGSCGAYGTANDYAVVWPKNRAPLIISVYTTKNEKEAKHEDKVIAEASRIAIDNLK
Method: as §1, §2

class B enzyme CcrA = class B enzyme CcrA (Bacteroides fragilis, UniProt P25910); experiment: as above; type: biochemical
Chain of class B enzyme CcrA (P25910 19-249): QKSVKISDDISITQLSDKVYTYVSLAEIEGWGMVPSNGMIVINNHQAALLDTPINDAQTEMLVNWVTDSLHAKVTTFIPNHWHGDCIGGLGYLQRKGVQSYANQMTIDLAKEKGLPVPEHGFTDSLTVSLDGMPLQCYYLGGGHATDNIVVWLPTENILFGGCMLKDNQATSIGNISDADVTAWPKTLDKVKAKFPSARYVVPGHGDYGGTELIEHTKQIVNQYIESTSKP
Method: as §1, §2

class C enzyme AmpC = class C enzyme AmpC (Enterobacter cloacae, UniProt P05364); experiment: biochemical; set-up: species or system Enterobacter cloaca
Chain of class C enzyme AmpC (P05364 21-381): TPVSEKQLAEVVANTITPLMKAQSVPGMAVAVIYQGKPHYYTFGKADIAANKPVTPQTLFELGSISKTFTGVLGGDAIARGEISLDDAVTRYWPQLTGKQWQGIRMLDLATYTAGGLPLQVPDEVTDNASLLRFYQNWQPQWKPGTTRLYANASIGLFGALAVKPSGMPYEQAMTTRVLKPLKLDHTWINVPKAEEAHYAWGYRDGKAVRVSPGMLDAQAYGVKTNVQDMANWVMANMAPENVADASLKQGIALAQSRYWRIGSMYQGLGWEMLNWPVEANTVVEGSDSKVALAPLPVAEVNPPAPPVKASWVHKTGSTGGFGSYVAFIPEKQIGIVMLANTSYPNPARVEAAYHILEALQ
Method: as §1, §2

[3] = test system: Clinical isolates that have been adapted to cause infection in mice; experiment: In vivo antibacterial protection, 7 day survival of infected mice; set-up: species or system mice strain CD-1
Text: In Vivo Antibacterial Protection
Female mice strain CD-1, approximately 18-22 grams, were received from Charles River Laboratories and quarantined 7 days prior to use. In addition, mice may be rendered neutropenic using cytoxan.
Clinical isolates that have been adapted to cause infection in mice, are used in the experiment, including infections with strains of E. coli, K. pneumoniae, M. morganii, E. cloacae, S. marcescens, C. freundii, staphylococci, streptococci, P. aeruginosa and N. gonorrhoeae.
Mice are challenged by injecting 0.5 ml intraperitoneally or 0.05 ml intranasally of a predetermined bacterial inoculum suspended in broth, saline or hog gastric mucin (supplemented with dried bovine hemoglobin for N. gonorrhoeae). […] Antibacterial doses (dose concentration prepared by two fold serial dilutions of the antibiotic) are dissolved or suspended in 0.2% aqueous agar or methocel, phosphate buffered saline or an adjuvant are administered orally, subcutaneously or intravenously in the following manner: • a) Orally or subcutaneously: Dose volume of 0.5 ml administered ½ hr after infection. A second dose may be administered 3 hr. after infection for treatment of infections with more virulent organisms. • b) Intravenously: Dose volume of 0.2 ml, administered ½ hr. after infection. For the treatment of infections with more virulent organisms, more doses, up to 48 hr may be administered. (Intravenous dosing will not exceed 3 doses/24 hr period.) • c) Oral pretreatment: Under special circumstances, the pH of the stomach needs to be adjusted in order to increase the gastric stability of the antibiotic. For this purpose, 0.5 ml of phosphate buffered saline (pH7.8, 0.06M) (or specific approved adjuvant) is administered orally ½ hr after infection, followed 5 minutes later by 0.5 ml of antibiotic (also orally) contained in phosphate buffered saline (pH7.8, 0.06M). Animal Species
A detailed explanation as to the number of animals needed for the determination of in vivo efficacy follows: • A) Novel antibiotics are tested at 5 different dose levels with 5 mice per dose level at each of three routes of administration (oral, subcutaneous and intravenous). […] This would require 25 mice/route with 3 routes/antibiotic or 75 mice per novel compound tested. One to two novel antibiotics will be tested per experiment (75-150 mice) • B) The effectiveness of the new compound must be compared to that of a standard, or antibiotic of known effectiveness. Known or previously tested antibiotics are tested at 5 dose levels with 5 mice per dose level by a single route of administration, for a total of 25 mice/antibiotic. Usually 3-6 antibiotics will be tested per experiment. (75-150 mice). • C) Untreated controls—In each of the above tests, untreated animals are infected with 3 different concentrations of bacterial inoculum with 10 mice per concentration (30 mice total in each and every test). These untreated controls are used to determine and maintain the infection level between 10-100 LD50s as required for test to test comparison and validity. Determination of Protective Effects of Antibacterial Agents:
The protective effects of the antibacterial agent(s) are measured by the survival of the infected untreated as compared to the treated animals. […] A census of survivors is taken twice daily and at that time dead as well as moribund animals are removed. […] The test is performed three times on separate days to provide a statistically valid number of animals and to minimize variation in test results on a day to day and test to test basis.

[4] = enzyme 7.1 nM, 10 minutes preincubation at 25° C., nitrocefin 50 μg/ml, pH 7.0, read-out: IC50 (nM) Class A Imi
[5] = enzyme 1.2 nM, 10 minutes preincubation at 25° C., nitrocefin 50 μg/ml, pH 7.0, read-out: IC50 (nM) Class B Ccr
[6] = enzyme 2.1 nM, 10 minutes preincubation at 25° C., nitrocefin 50 μg/ml, pH 7.0, read-out: IC50 (nM) Class C AmpC
[7] = Mus musculus, 168 h, Ratio of Piperacillin vs. Inhibitor 4:1, read-out: ED50
[8] = Mus musculus, 168 h, Ratio of Piperacillin vs. Inhibitor not given, read-out: ED50

Structure (SMILES)	melting point	IC50 [1]	IC50 [2, 4]	IC50 (class B enzyme CcrA; [5])	IC50 (class C enzyme AmpC; [6])	ED50 ([3]; Mus musculus, 168 h, Ratio of Piperacillin vs. Inhibitor 2:1, read-out: ED50)	IC50 (class C enzyme AmpC)	ED50 [3, 7]	ED50 [3, 8]	IC50 (class B enzyme CcrA)	IC50 (class C enzyme AmpC; read-out: IC50 (nM) Class C AmpC, pH 7)	ED50 ([3]; Ratio of Piperacillin vs. Inhibitor not given)	IC50 [2]
CN1Cc2nc(/C=C3/C(=O)N4C(C(=O)O)=CS[C@H]34)cn2CC1=O (as salt: sodium) [Example 10, (5R),(6Z)-6-(7-Methyl-6-oxo-5,6,7,8-tetrahydro-imidazo[1,2-a]pyrazin-2-ylmethylene)-7-oxo-4-thia-1-aza-bicyclo[3.2.0]hept-2-ene-2-carboxylic acid sodium salt]	115 to 117 °C (dec.)	–	–	–	–	–	–	–	–	–	–	–	–
O=C(O)C1=CS[C@@H]2/C(=C\c3cc4c(s3)CCN(Cc3ccccc3)C4)C(=O)N12 [Example 1, (5R,6Z)-6-[(5-benzyl-4,5,6,7-tetrahydrothieno[3,2-c]pyridin-2-yl)methylene]-7oxo-4-thia-1-azabicyclo[3.2.0]hept-2-ene-2-carboxylic acid]	198 °C	4.2 nM	2.1 nM	260 nM	12 nM	32 to 64 mg/kg	–	–	–	–	–	–	–
O=C([O-])C1=CS[C@@H]2/C(=C\c3cc4n(n3)CCSC4)C(=O)N12.[Na+] [Example 11, (5R)(6Z)-6-(6,7-Dihydro-4H-pyrazolo[5,1-c][1,4]thiazin-2-ylmethylene)-7-oxo-4-thia-1-azabicyclo[3.2.0]hept-2-ene-2-carboxylic acid, sodium salt]	–	1 nM	18 nM	61 nM	–	–	1.2 nM	13.9 mg/kg	–	–	–	–	–
O=C([O-])C1=CS[C@@H]2/C(=C\c3cc4n(n3)CSC4)C(=O)N12.[Na+] [Example 12, (5R)(6Z)-7-Oxo-6-(4H-5-thia-1,6a-diazapentalen-2-ylmethylene)-4-thia-1-azabicyclo[3.2.0]hept-2-ene-2-carboxylic acid, sodium salt]	–	1.4 nM	56 nM	110 nM	–	–	1.5 nM	20 mg/kg	–	–	–	–	–
O=C([O-])C1=CS[C@@H]2/C(=C\c3cn4c(n3)CSC4)C(=O)N12.[Na+] [Example 13, (5R)(6Z)-6-(7H-Imidazo[1,2-c]thiazol-2-ylmethylene)-7-oxo-4-thia-1-azabicyclo[3.2.0]hept-2-ene-2-carboxylic acid, sodium salt]	–	2.9 nM	16 nM	160 nM	–	–	3.1 nM	–	18 mg/kg	–	–	–	–
CN1CCc2sc(C=C3C(=O)N4C(C(=O)O)=CSC34)cc2C1 (stereo not shown) [Example 17, 6-(5-Methyl-4,5,6,7-tetrahydro-thieno[3,2-c]pyridin-2-ylmethylene)-7-oxo-4-thia-1-aza-bicyclo[3.2.0]hept-2-ene-2-carboxylic acid]	–	12 nM	24 nM	28 nM	26 nM	–	–	37.9 mg/kg	–	–	–	–	–
O=C(O)C1=CSC2C(=Cc3cn4c(n3)CCCCC4)C(=O)N12 (stereo not shown) [Example 19, 7-Oxo-6-(6,7,8,9-tetrahydro-5H-imidazo[1,2-a]azepin-2-ylmethylene)-4-thia-1-aza-bicyclo[3.2.0]hept-2-ene-2-carboxylic acid]	–	4.8 nM	2700 nM	170 nM	4.6 nM	–	–	59.2 mg/kg	–	–	–	–	–
O=C(O)C1=CS[C@@H]2/C(=C\c3cc4n(n3)CCS(=O)(=O)C4)C(=O)N12 [Example 24, (5R),(6Z)-6-(5,5-Dioxo-4,5,6,7-tetrahydro-5λ^6-pyrazolo[5,1-c][1,4]thiazin-2-ylmethylene)-7-oxo-4-thia-1-azabicyclo[3.2.0]hept-2-ene-2-carboxylic acid, sodium salt]	–	1.1 nM	56 nM	–	1.5 nM	–	–	–	64 mg/kg	4 nM	–	–	–
O=C(O)C1=CS[C@@H]2/C(=C\c3cc4n(n3)CCNC4)C(=O)N12 [Example 25, (5R),(6Z)-7-Oxo-6-(4,5,6,7-tetrahydropyrazolo[1,5-a]pyrazin-2-ylmethylene)-4-thia-1-aza-bicyclo[3.2.0]hept-2-ene-2-carboxylic acid, sodium salt]	–	1.1 nM	123 nM	162 nM	2.7 nM	–	–	–	30 mg/kg	–	–	–	–
CC1(C)Cc2cc(/C=C3/C(=O)N4C(C(=O)[O-])=CS[C@H]34)nn2C1.[Na+] [Example 26, (5R)(6Z)-6-(5,5-Dimethyl-4H-1,6a-diazapentalen-2-ylmethylene)-7-oxo-4-thia-1-azabicyclo[3.2.0]hept-2-ene-2-carboxylic acid, sodium salt]	–	0.73 nM	54 nM	89 nM	–	–	2.3 nM	–	30 mg/kg	–	–	–	–
O=C(O)C1=CS[C@@H]2/C(=C\c3cc4c(o3)CCC4)C(=O)N12 [Example 27, (5R),(6Z)-6-(5,6-Dihydro-4H-cyclopenta[b]furan-2-ylmethylene)-7-oxo-4-thia-1-azabicyclo[3.2.0]hept-2-ene-2-carboxylic acid, sodium salt]	–	2 nM	5.5 nM	73 nM	2 nM	–	–	–	28 mg/kg	–	–	–	–
O=C([O-])C1=CS[C@@H]2/C(=C\c3cc4n(n3)CSC4)C(=O)N12.[Na+] [Example 31, (5R)(6Z)-7-Oxo-6-(4H-5-thia-1,6a-diazapentalen-2-ylmethylene)-4-thia-1-azabicyclo[3.2.0]hept-2-ene-2-carboxylic acid, sodium salt]	–	1.4 nM	56 nM	110 nM	–	–	–	–	–	–	1.5 nM	20 mg/kg	–
O=C([O-])C1=CS[C@@H]2/C(=C\c3cc4n(n3)CCO4)C(=O)N12.[Na+] [Example 33, (5R)(6Z)-6-(2,3-Dihydropyrazolo[5,1-b]oxazol-6-ylmethylene)-7-oxo-4-thia-1-azabicyclo[3.2.0]hept-2-ene-2-carboxylic acid, sodium salt]	–	1.1 nM	59 nM	41 nM	–	–	0.85 nM	–	> 64 mg/kg	–	–	–	–
O=C(O)C1=CS[C@@H]2/C(=C\c3cc4n(n3)CCOC4)C(=O)N12 [Example 35, (5R,6Z)-6-(6,7-dihydro-4H-pyrazolo[5,1-c][1,4]oxazin-2-ylmethylene)-7-oxo-4-thia-1-azabicyclo[3.2.0]hept-2-ene-2-carboxylic acid]	–	4.2 nM	–	30 nM	6.1 nM	–	–	–	19 mg/kg	–	–	–	230 nM
